Data published in PMC10590383, “Repurposing conformational changes in ANL superfamily enzymes to rapidly generate biosensors for organic and amino acids” (Nature Communications, 2023).

Key:
[1] = Substrate (ligand) specificity of […]s; type: biochemical; details: for fluorescence response of GECFINDER to each substrate, AVE of 3 repeats: Supplementary Fig. 3 c, substrate specificity; for AVE of Repeat 1-3, sensor signal with ligand (Supplementary Fig. 7 c): 1 mM ligand, Control AVE 12117.3
Protocol: Fig. 4 Engineering ligand specificity of GrsA-PheA for generating […]s. a The selectivity-conferring code of Phe and Leu A domains. b–f Dose–response curve of purified […]s with increasing concentrations of ligands in 100 mM Tris-HCl buffer (pH=7.5). All data shown are means ± S.D. (n = 3 biologically independent samples). g A series of […] reactions was tested to show the […]’s specificity with 20 proteinogenic amino acids. The values on the heatmap represent the ΔF/F0 value normalized to each […]’s maximal ΔF/F0 value ((ΔF/F0)/maximal ΔF/F0). The concentrations of 20 amino acids were 100 μM. The color indicates the average value of three independent biological replicates after 15 min. All data shown are means ± S.D. (n = 3 biologically independent samples). Source data are provided as a Source data file.
Ligand specificity is an important biosensors feature. Generally, the NRPS A domains have high specificity for their substrates because they are the first “gatekeeper” of NRPSs and ensure that the correct monomers are activated and thioesterified[32],[33]. Therefore, we speculated that this property would be inherited by our […]s because the ligand-binding pockets were unchanged during the […] creation process. Twenty proteinogenic amino acids were used to test the ligand specificity of […]s. […] We also investigated the dependence of […]s on Mg^2+ and ATP (Supplementary Fig. 4). […] This phenomenon corroborates with the distinct conformational changes observed in Hinge A of Nt4CL2 (Mg^2++ATP) (PDB ID: 5BSM) and Nt4CL2 (Coumaroyl-AMP) (PDB ID: 5BST) reported in the literature (Supplementary Fig. 4k), where the direction of motion in hinge A differs. […] During the determination of quantum yield, we observed that the absolute quantum yield of the […] variants ranged from 0.3 to 0.6 upon addition of the respective substrates, which show no significant difference with that reported in literature. The specific values are provided in Supplementary Table 2.
The study conducted dose–response curve, substrate specificity, and fluorescent spectrum analyses in 100-mM Tris buffer (pH = 7.5), while pH stability experiments were performed in 100-mM Tris buffer at three different pH values (6.5, 7.5, and 8.5) at room temperature. […] protein at a concentration of 0.75 μM, various small molecule concentrations, 1 mM ATP, and 2.5 mM MgCl2 were used in the experiments. Fluorescent signals were detected using a Microplate Reader (Synergy H4, Bio Tek) at an excitation/emission wavelength of 460 nm/510 nm or 480 nm/510 nm. The dose-response curve was determined immediately after the addition of the analyte. The total duration of the measurement was 15 min, with readings taken at one-minute intervals. The dose-response curve was plotted using the fluorescence values obtained after achieving stability in the fluorescence signal. The dose-response curves were fitted using the logistic model LOGISTIC5 available in Origin 2021, which could provide a more adequate fit to asymmetric dose-response data[62],[63]. Excitation spectra were scanned from 300 to 540 nm with a step size of 5 nm, and the emission wavelength was set to 560 nm. Emission spectra were scanned from 470 to 700 nm with a step size of 5 nm, and the excitation wavelength was set to 450 nm. The thermal stability of […] was analyzed using the UNcle multifunctional protein stability analysis system. Measurements were performed in 20 mM MOPS buffer with 2 mM DTT at a sample concentration of 1 mg/mL. Absolute fluorescence quantum yields were measured using an absolute photoluminescence quantum yield spectrometer (FS5, Edinburgh).

[2] = Dependence of […]s on Mg2+ and ATP (fluorescence intensity); type: biochemical; details: Mg+ +
Text: Ligand specificity is an important biosensors feature. Generally, the NRPS A domains have high specificity for their substrates because they are the first “gatekeeper” of NRPSs and ensure that the correct monomers are activated and thioesterified[32],[33]. […] Twenty proteinogenic amino acids were used to test the ligand specificity of […]s. […] We also investigated the dependence of […]s on Mg^2+ and ATP (Supplementary Fig. 4).
Supplementary Fig. 4 Dependence of GEC FINDER s on Mg2+ and ATP . a-j, Fluore scence intensities of
GECF IN DERs in the absence of any substra te, in the pre sence of Mg2+ alone, ATP alone, both Mg2+ and ATP, Mg2+
and ATP with re spective substra tes. Mg2+ concentra tion was 2.5 mM, and ATP concentra tion was 1 mM. a, 100 μM
data are provided as a Source Data file.

SMILES: C[C@H](N)C(=O)O [Ala]
- fluorescence response of GECFINDER to each substrate, AVE of 3 repeats [1]: 0.02842

SMILES: N=C(N)NCCC[C@H](N)C(=O)O [Arg]
- fluorescence response of GECFINDER to each substrate, AVE of 3 repeats [1]: 0.01953

SMILES: NC(=O)C[C@H](N)C(=O)O [Asn]
- fluorescence response of GECFINDER to each substrate, AVE of 3 repeats [1]: 0.01237

SMILES: N[C@@H](CC(=O)O)C(=O)O [Asp]
- fluorescence response of GECFINDER to each substrate, AVE of 3 repeats [1]: 0.02069

SMILES: N[C@@H](CS)C(=O)O [Cys]
- fluorescence response of GECFINDER to each substrate, AVE of 3 repeats [1]: -0.0008412

SMILES: NC(=O)CC[C@H](N)C(=O)O [Gln]
- fluorescence response of GECFINDER to each substrate, AVE of 3 repeats [1]: 0.009843

SMILES: NCC(=O)O [Gly]
- fluorescence response of GECFINDER to each substrate, AVE of 3 repeats [1]: 0.007359

SMILES: NCCCC[C@H](N)C(=O)O [Lys]
- fluorescence response of GECFINDER to each substrate, AVE of 3 repeats [1]: -0.005837

SMILES: CSCC[C@H](N)C(=O)O [Met]
- AVE of Repeat 1-3, sensor signal with ligand (Supplementary Fig. 7 c) [1]: 12345.3
- fluorescence response of GECFINDER to each substrate, AVE of 3 repeats [1]: 0.1232

SMILES: [Mg+2] [Mg+]
- fluorescence intensity, AVE of 3 repeats ([2]; Supplementary Fig. 4 a, ATP -, 4-coumaric acid -): 2849
- fluorescence intensity, AVE of 3 repeats ([2]; Supplementary Fig. 4 b, ATP -, phenylalanine -): 6591
- fluorescence intensity, AVE of 3 repeats ([2]; Supplementary Fig. 4 c, ATP -, glutamine -): 17660
- fluorescence intensity, AVE of 3 repeats ([2]; Supplementary Fig. 4 e, ATP -, isoleucine -): 12580
- fluorescence intensity, AVE of 3 repeats ([2]; Supplementary Fig. 4 f, ATP -, histidine -): 26018
- fluorescence intensity, AVE of 3 repeats ([2]; Supplementary Fig. 4 g, ATP -, leucine -): 6350.33
- fluorescence intensity, AVE of 3 repeats ([2]; Supplementary Fig. 4 i, ATP -, tyrosine -): 5977
- fluorescence intensity, AVE of 3 repeats ([2]; Supplementary Fig. 4 j, ATP -, phenylalanine -): 7671.67
- fluorescence intensity, AVE of 3 repeats ([2]; Supplementary Fig. 4 h, ATP -, S-β-phenylalanine -): 5046.33
- fluorescence intensity, AVE of 3 repeats ([2]; Supplementary Fig. 4 d, ATP -, proline -): 43559.3

SMILES: N[C@@H](CC(=O)O)c1ccccc1 [S-β-phenylalanine]
- fluorescence intensity, AVE of 3 repeats ([2]; Supplementary Fig. 4 h, ATP +, S-β-phenylalanine +): 22066

SMILES: N[C@@H](CO)C(=O)O [Ser]
- fluorescence response of GECFINDER to each substrate, AVE of 3 repeats [1]: -0.004319

SMILES: C[C@@H](O)[C@H](N)C(=O)O [Thr]
- fluorescence response of GECFINDER to each substrate, AVE of 3 repeats [1]: -0.00888

SMILES: N[C@@H](Cc1c[nH]c2ccccc12)C(=O)O [Trp]
- AVE of Repeat 1-3, sensor signal with ligand (Supplementary Fig. 7 c) [1]: 11938.7
- fluorescence response of GECFINDER to each substrate, AVE of 3 repeats [1]: -0.01712

SMILES: CC(C)[C@H](N)C(=O)O [Val]
- fluorescence response of GECFINDER to each substrate, AVE of 3 repeats [1]: -0.02124

SMILES: N[C@@H](Cc1c[nH]cn1)C(=O)O [histidine]
- fluorescence intensity, AVE of 3 repeats ([2]; Supplementary Fig. 4 f, ATP +, histidine +): 33756

SMILES: CC[C@H](C)[C@H](N)C(=O)O [isoleucine]
- fluorescence intensity, AVE of 3 repeats ([2]; Supplementary Fig. 4 e, ATP +, isoleucine +): 15546

SMILES: N[C@@H](Cc1ccccc1)C(=O)O [phenylalanine]
- fluorescence intensity, AVE of 3 repeats ([2]; Supplementary Fig. 4 b, ATP +, phenylalanine +): 39284.7
- fluorescence intensity, AVE of 3 repeats ([2]; Supplementary Fig. 4 j, ATP +, phenylalanine +): 31788

SMILES: O=C(O)[C@@H]1CCCN1 [proline]
- fluorescence intensity, AVE of 3 repeats ([2]; Supplementary Fig. 4 d, ATP +, proline +): 54621.3

SMILES: N[C@@H](Cc1ccc(O)cc1)C(=O)O [tyrosine]
- fluorescence intensity, AVE of 3 repeats ([2]; Supplementary Fig. 4 i, ATP +, tyrosine +): 9237.33
